SMILES strings stand for the structures. Active and inactive are the calls of the source. How the calls were made is not given here.

The values below come from PubChem BioAssay AID743070 (Broad Institute, 2013).

A short description of this experiment: growth inhibition of wild-type Mtb, BioA inhibitor project, biotin-free medium, plate reader, dry powder (AID 743070). The following applies: M. tuberculosis wild type growth; for IC90: measured here: Mtb growth IC90.

Usually IC50 stands for the concentration needed to halve the response being measured. As usually defined, the IC90 is the concentration at which the effect reaches the 90% level. High values mean weaker potency, low ones greater potency. As to `O=C(Nc1cccnc1)c1cnn2c(C(F)F)cc(C3CC3)nc12`, the IC50 is > 50 µM (inactive) and the IC90 was above 50 µM.

On to `CC(=O)c1ccc(N2CCN(C(=O)c3ccc4ncsc4c3)CC2)cc1`, for which the half-maximal inhibitory concentration (IC50) was 22.2 µM and the concentration for an effect of 90% (IC90) was above 50 µM.

For the compound `O=C(c1ccc2c(c1)OCO2)N1CCN(c2ccccc2)CC1`, the IC50 is 23.2 µM and the IC90 is above 50 µM.

For `Cc1cc(C)n2nc(C(=O)Nc3cccnc3)nc2n1`, the IC50 is > 50 µM (inactive) and the IC90 was above 50 µM.

As for `Cc1ccc(/C=C(\CCC(=O)O)c2nc3ccccc3s2)cc1`, the IC50 is 2 µM and the 90% effect concentration (IC90) worked out at 4.8 µM.

As for `COc1ccc(N2CCN(C(=O)c3ccc4c(c3)OCO4)CC2)cc1`, the half-inhibitory concentration (IC50) is 9.7 µM and the concentration for an effect of 90% (IC90) was above 50 µM.

On to `Cc1cccc(/C=C(\CCC(=O)O)c2nc3ccccc3s2)c1`, for which the half-maximal inhibitory concentration (IC50) is 3.1 µM and the 90% effect concentration (IC90) was 11 µM.

As for `CC(=O)c1ccc(N2CCN(C(=O)c3ccc(Cl)cc3)CC2)cc1`, the IC50 is > 50 µM (inactive) and the IC90 is above 50 µM.

As for `O=C(c1ccc2c(c1)OCO2)N1CCN(Cc2ccccc2)CC1`, the IC50 was > 50 µM (inactive) and the concentration for an effect of 90% (IC90) was above 50 µM.

For the compound `CC(C)(C)c1ccc(C(=O)N2CCN(c3ccc4c(c3)OCO4)CC2)cc1`, the IC50 was 14.9 µM and the IC90 is above 50 µM.

As to `O=C(COc1ccc2ccc(=O)oc2c1)N1CCN(c2ccc(F)cc2)CC1`, the IC50 is 50 µM and the 90% effect concentration (IC90) was above 50 µM.

Regarding `Cc1ccc(-c2cc(C(F)(F)F)n3nc(C(=O)Nc4cccnc4)cc3n2)cc1`, the IC50 is > 50 µM (inactive) and the IC90 is above 50 µM.

As for `CC(=O)c1ccc(N2CCN(C(=O)c3cccc(F)c3)CC2)cc1`, the IC50 was > 50 µM (inactive) and the 90% effect concentration (IC90) was above 50 µM.

`CC(=O)c1ccc(N2CCN(C(=O)c3cccc(Cl)c3)CC2)cc1`: the IC50 is 7.5 µM and the IC90 was found to be 27.5 µM.

On to `O=C(Nc1ccc2snnc2c1)N1CCN(c2ccccc2)CC1`, for which the IC50 was 3.2 µM and the concentration for an effect of 90% (IC90) was 17.9 µM.

As for `COc1cccc(NC(=O)CCC2CCN(C(=O)c3ccc(C(C)=O)s3)CC2)c1`, the concentration for half-maximal inhibition (IC50) was 10.7 µM and the IC90 is above 50 µM.

Regarding `O=C(Nc1ccncc1)c1cc2nc(C3CC3)cc(C(F)F)n2n1`, the IC50 was 50 µM and the IC90 is above 50 µM.

Take `CCc1ccc(C(=O)N2CCN(Cc3ccc4c(c3)OCO4)CC2)cc1`: the half-maximal inhibitory concentration (IC50) was 8.5 µM and the 90% effect concentration (IC90) was above 50 µM.

Regarding `CC(=O)c1ccc(N2CCN(C(=O)c3ccc4c(c3)OCO4)CC2)cc1`, the IC50 is 5 µM and the concentration for an effect of 90% (IC90) stood at 26.3 µM.

Turning to `CCOC(=O)N1CCN(C(=O)Nc2ccc3snnc3c2)CC1`, the IC50 is 14.6 µM and the IC90 is above 50 µM.

`Cc1ccc(/C=C(\CCCC(=O)O)c2nc3ccccc3s2)cc1[N+](=O)[O-]`: the IC50 is 8.4 µM and the IC90 is above 63.3 µM.

With `CC(=O)c1ccc(N2CCN(Cc3ccc4c(c3)OCO4)CC2)cc1`, the half-maximal inhibitory concentration (IC50) is 31.2 µM and the IC90 was above 50 µM.

With `O=C(Nc1ccc2[nH]ccc2c1)N1CCN(c2ccccc2)CC1`, the IC50 is 7 µM and the IC90 was above 50 µM.

Turning to `Cc1ccc(NC(=O)N2CCN(c3ccccc3)CC2)cc1`, the half-inhibitory concentration (IC50) was 10.3 µM and the concentration for an effect of 90% (IC90) is above 50 µM.

Turning to `O=C(Nc1ccc(Cl)cc1)c1cc2nc(C3CC3)cc(C(F)(F)F)n2n1`, the IC50 was 50 µM and the IC90 was above 50 µM.

On to `Cc1ccc(/C=C(\CC(=O)O)c2nc3ccccc3s2)cc1[N+](=O)[O-]`, for which the IC50 was 6.8 µM and the IC90 was above 50 µM.

In the case of `O=C(Nc1ccc(F)cc1)N1CCN(c2ccccc2)CC1`, the 50% inhibitory concentration (IC50) is 14.1 µM and the IC90 is above 50 µM.

For `CC(=O)c1ccc(N2CCN(C(=O)c3cccnc3)CC2)cc1`, the IC50 is > 50 µM (inactive) and the IC90 is above 50 µM.

For the compound `Cc1ccc(/C=C(\CCC(=O)O)c2nc3ccccc3s2)cc1[N+](=O)[O-]`, the 50% inhibitory concentration (IC50) was 1.1 µM and the IC90 is 2.5 µM.

As for `O=C(Nc1cccnc1)N1CCN(c2ccccc2)CC1`, the IC50 was > 50 µM (inactive) and the concentration for an effect of 90% (IC90) is above 50 µM.

For `CC(=O)c1ccc(N2CCN(C(=O)c3ccc(C)cc3)CC2)cc1`, the IC50 was > 50 µM (inactive) and the 90% effect concentration (IC90) is above 50 µM.

Consider `COC(=O)c1c(C(=O)OC)c(-c2cccc(F)c2)n2c1CS(=O)C2` (stereo not given), for which the concentration for half-maximal inhibition (IC50) was 15.9 µM and the IC90 is above 50 µM.

`Cc1nc2ccc(NC(=O)N3CCN(c4ccccc4)CC3)cc2s1`: the 50% inhibitory concentration (IC50) is 2.1 µM and the concentration for an effect of 90% (IC90) came out at 6.8 µM.

For the compound `CC(=O)c1ccc(N2CCN(C(=O)c3ccc(F)cc3)CC2)cc1`, the IC50 is 50 µM and the concentration for an effect of 90% (IC90) is above 50 µM.

For the compound `O=C(c1ccc2c(c1)OCO2)N1CCN(c2ccc(F)cc2)CC1`, the IC50 is 22 µM and the 90% effect concentration (IC90) is above 50 µM.

For the compound `COc1cccc(NC(=O)N2CCN(c3ccccc3)CC2)c1`, the IC50 is 50 µM and the IC90 was above 50 µM.

As to `O=C(Nc1cccc(Cl)c1)N1CCN(c2ccccc2)CC1`, the IC50 is 5 µM and the IC90 was above 50 µM.

On to `O=C(Nc1ccccc1)N1CCN(c2ccccc2)CC1`, for which the 50% inhibitory concentration (IC50) was 6.9 µM and the 90% effect concentration (IC90) was above 50 µM.

Turning to `CC(=O)c1ccc(N2CCN(C(=O)c3ccc4c(c3)OCCO4)CC2)cc1`, the IC50 is > 50 µM (inactive) and the concentration for an effect of 90% (IC90) was above 50 µM.

Take `O=C(Nc1ccc(Cl)c(-c2nc3ccccc3[nH]2)c1)c1cccnc1`: the 50% inhibitory concentration (IC50) was 7.4 µM and the 90% effect concentration (IC90) was found to be 46 µM.

As for `O=C(O)CC/C(=C\c1ccc([N+](=O)[O-])cc1)c1nc2ccccc2s1`, the IC50 was 8.9 µM and the IC90 worked out at 34.4 µM.

Take `O=C(Nc1cccnc1)c1cnn2c(C(F)(F)F)cc(-c3ccccc3)nc12`: the IC50 was > 50 µM (inactive) and the concentration for an effect of 90% (IC90) is above 50 µM.

Consider `COc1ccc(C(=O)N2CCN(c3ccc(C(C)=O)cc3)CC2)cc1`, for which the IC50 was > 50 µM (inactive) and the 90% effect concentration (IC90) was above 50 µM.

Turning to `O=C(Nc1cccnc1)c1cc2nc(-c3cccs3)cc(C(F)(F)F)n2n1`, the IC50 was > 50 µM (inactive) and the 90% effect concentration (IC90) was above 50 µM.

`COc1cccc(C(=O)N2CCN(c3ccc(C(C)=O)cc3)CC2)c1`: the IC50 was 50 µM and the concentration for an effect of 90% (IC90) is above 50 µM.

For `Cc1nc2cc(NC(=O)N3CCN(c4ccccc4)CC3)ccc2o1`, the concentration for half-maximal inhibition (IC50) is 50 µM and the IC90 was above 50 µM.

Regarding `COc1ccc(-c2cc(C(F)(F)F)n3nc(C(=O)Nc4cccnc4)cc3n2)cc1`, the IC50 was 2.7 µM and the IC90 is above 50 µM.

Turning to `CCN(CC)c1ccc2cc(C(=O)c3cccs3)c(=O)oc2c1`, the 50% inhibitory concentration (IC50) was 3.8 µM and the concentration for an effect of 90% (IC90) amounted to 20.7 µM.

On to `O=C(O)CC/C(=C\c1ccccc1[N+](=O)[O-])c1nc2ccccc2s1`, for which the 50% inhibitory concentration (IC50) is 50 µM and the concentration for an effect of 90% (IC90) was above 50 µM.

Turning to `O=C(Nc1ccc2snnc2c1)N1CCCCC1`, the half-inhibitory concentration (IC50) is 50 µM and the IC90 is above 50 µM.

With `Cc1ccccc1/C=C(\CCC(=O)O)c1nc2ccccc2s1`, the half-inhibitory concentration (IC50) is 8.3 µM and the IC90 was 44.1 µM.

For the compound `CC(=O)c1ccc(N2CCN(C(=O)c3ccccc3)CC2)cc1`, the IC50 is > 50 µM (inactive) and the IC90 was above 50 µM.

Take `O=C(Nc1cccc(F)c1)N1CCN(c2ccccc2)CC1`: the 50% inhibitory concentration (IC50) was 8.2 µM and the IC90 is above 50 µM.

`O=C(c1ccc2c(c1)OCO2)N1CCN(c2ccc(Cl)cc2)CC1`: the IC50 was 11.2 µM and the IC90 was 49.2 µM.

Turning to `COc1ccc(NC(=O)N2CCN(c3ccccc3)CC2)cc1`, the IC50 was 50 µM and the IC90 was above 50 µM.

With `Cc1cc(C)n2nc(C(=O)Nc3cccnc3)cc2n1`, the IC50 is 21.8 µM and the IC90 is above 50 µM.

Consider `O=C(Nc1ccc2snnc2c1)N1CCOCC1`, for which the IC50 is > 50 µM (inactive) and the IC90 is above 50 µM.

Take `CC(=O)c1ccc(N2CCN(C(=O)c3ccc(Br)cc3)CC2)c(F)c1`: the IC50 is 10.3 µM and the 90% effect concentration (IC90) was above 50 µM.

Consider `CCc1ccc(N2CCN(C(=O)c3ccc4c(c3)OCO4)CC2)cc1`, for which the IC50 was 9.6 µM and the 90% effect concentration (IC90) is above 50 µM.

Consider `COc1cc(/C=C/C(=O)Nc2cccnc2)cc(OC)c1OC`, for which the IC50 is 13.7 µM and the IC90 was above 50 µM.
